Structures can show the parent of a compound that is named as a salt.
How the values were obtained:
HSV-1 (Tomioka strain) = assay: Efficacy test by oral administration in HSV-1 infected mice; format: in vivo, CDF-1 mouse; parameters: Survival Ratio after 21 days: unit: %; settings: for Average Survival days / Survival Ratio after 21 days: HSV-1 i.p. infected CDF-1 mice; for Survival Ratio after 21 days: 10 mice per group
Experimental: A 4-week-age male CDF-1 mouse was intraperitoneally infected with HSV-1 (Tomioka strain) in an amount of 2.4 × 10⁵ pfu/mouse. Three hours after the infection, administration of each test compound was started. The test compound was dissolved in 0.2 ml of distilled water for injection use and intragastrically administered via catheter once a day for 5 days in a dose of 0.625, 1.25, or 2.5 µmol/kg/day. Each of the test groups consisted of 10 mice, and the survival ratio after 21 days from the administration and the average survival days were obtained.

[1] = Measurement of oral absorbability (plasma AUC after oral administration); settings: in vivo, 0.1 mmol/kg in physiological saline, male ICR mouse, plasma concentration of 9-[1'S,2'R-bis(hydroxymethyl)cyclopropan-1'-yl]methylguanine by HPLC, 15 minutes to 4 hours
Experimental: Each of the test compounds was dissolved in 0.2 ml of physiological saline and orally administered to 5-week-age male ICR mouse in a dose of 0.1 mmol/kg. After 15 minutes, 30 minutes, 1 hour, 2 hours, or 4 hours from the administration, blood was collected from three mice, respectively, and centrifuged at 3,000 rpm for 10 minutes to obtain a plasma. A 20 % trichloroacetic acid aqueous solution (100 µl) was added to the plasma (100 µl), and the resulting mixture was shaken and then centrifuged at 8,000 rpm for 1 minutes to obtain a supernatant. The concentration of 9-[1'S,2'R-bis(hydroxymethyl)cyclopropan-1'-yl]methylguanine in the supernatant was measured by HPLC and the area under the blood concentration time curve (AUC) was calculated.

[2] = 0.625 µmol/kg/day intragastrically once a day for 5 days
[3] = 1.25 µmol/kg/day intragastrically once a day for 5 days
[4] = 2.5 µmol/kg/day intragastrically once a day for 5 days

Row | Structure (SMILES) | Average Survival days (HSV-1 (Tomioka strain); [2]) [days] | Survival Ratio after 21 days (HSV-1 (Tomioka strain); [2]) | Average Survival days (HSV-1 (Tomioka strain); [3]) [days] | Survival Ratio after 21 days (HSV-1 (Tomioka strain); [3]) | Average Survival days (HSV-1 (Tomioka strain); [4]) [days] | Survival Ratio after 21 days (HSV-1 (Tomioka strain); [4]) | AUC at 4 h [1] [µM·h] | efficacy (HSV-1 (Tomioka strain); in words, compared with 9-[1'S,2'R-bis(hydroxymethyl)cyclopropan-1'-yl]methylguanine)
1 | Nc1nc2c(ncn2C[C@]2(CO)C[C@H]2CO)c(=O)[nH]1 [9-[1'S,2'R-bis(hydroxymethyl)cyclopropan-1'-yl]methylguanine] | 7.8 ± 1.2 | 0 | 9.4 ± 1.9 | 0 | 11.3 ± 3.1 | 60 | 16 | –
2 | C[C@H](N)C(=O)OC[C@@H]1C[C@@]1(COC(=O)[C@H](C)N)Cn1cnc2c(=O)[nH]c(N)nc21 [Compound of Example 1, 9-[1'S,2'R-bis(O-L-alanyloxymethyl)cyclopropan-1'-yl]methylguanine trihydrochloride] | 9.7 ± 2.7 | 40 | 14.3 ± 4.1 | 60 | – | 100 | – | superior efficacy

Reference: patent EP0654473A1, “Cyclopropane derivatives and antiviral agents containing the same” (Ajinomoto Co., Inc., priority 1993, dated 1995)
